Data as given in patent US20230295229A1, “PEPTIDE SELECTIVELY BINDING TO CANCER CELL-DERIVED EXOSOME, AND USES THEREOF” (KYUNGPOOK NATIONAL UNIVERSITY INDUSTRY-ACADEMIC COOPERATION …, priority 2020, published 2023).
Blank lines part the entries; values can stand above or below the compound they belong to. Primed or numbered codes have the meaning given here. No end group written: not given here. FITC′ = not defined here

Columns and labels:
[1] = system: A549 cells; experiment: cell viability CCK-8 assay with GW4869; type: cell-based, human; settings: various concentrations, 3 hours serum-free then 24 hours
[2] = system: exosome release of A549 cells; experiment: inhibition of exosome release, western blotting of exosome markers; type: cell-based, human; settings: 10 μM compared to 2.5 and 5 μM
Protocol: In order to further identify the binding specificity of ExoPep to exosomes, GW4869 ([…], Sigma-Aldrich), a drug that inhibits the release of exosome out of cells, was treated to cells at various concentrations (2.5, 5, and 10 μM). Thereafter, exosomes were isolated, and electrophoresis and western blotting with antibodies against CD63, Alix, Tsg101, and calnexin (Abcam) were performed in the same manner as described in FIG. 1.

[3] = system: A549 cells; experiment: internalization of exosomes and ExoPep after GW4869, immunofluorescence staining; type: cell-based, human; settings: 10 μM GW4869
Protocol: Based on the above results, using 10 μM GW4869 inhibitor, the binding of the ExoPep peptide to the exosomes and internalization thereof were analyzed.

[4] = system: A549 cell-derived exosome / A549 cells; experiment: confocal microscopy of peptide internalization with exosomes; type: cell-based, human; settings: 10 uM FITC-conjugated peptide, DiD-labeled exosomes, 37° C., 1 hour
Protocol: (§1) Media of A549, HEK293, and MDA-MB231 cells were collected, exosomes were isolated through ultracentrifugation, and exosomes were labeled with DiD fluorescence reagent (red), followed by a reaction with ExoPep peptide (FITC label, green). After the reaction, the cells were immobilized, and the nuclei were stained with DAPI (blue) to analyze with confocal microscopy. More specifically, the isolated exosomes and DiD (1:200 dilution) were reacted on a stirrer at 37° C. for 30 minutes. After adding Exoquick reagent, condition was maintained at 4° C. for 30 minutes, and then DiD-labeled exosomes were precipitated by centrifugation at 13000 rpm for 3 minutes. Thereafter, a mixture of 10 uM FITC-conjugated peptide and DiD-labeled exosomes was reacted with A549 cells at 37° C. for 1 hour. After washing three times, immobilization was performed using 2% paraformaldehyde (PFA). After washing again, cells were treated with 4′-6-diamidino-2-phenylindole (DAPI) for nucleus staining. Finally, after mounting, observation was followed using a confocal microscope (Zeiss, Oberkochen, Germany).

[5] = system: exosomes derived from normal HEK293 cells / HEK293 cells; experiment: as above; type: cell-based; settings: same manner
Protocol: as §1
On the other hand, the exosomes derived from normal HEK293 cells were treated in the same manner as described above and observed under a confocal microscope (Zeiss, Oberkochen, Germany).

[6] = system: exosomes derived from normal HEK293 cells; experiment: inhibition of exosome internalization by magnetic removal of peptide-bound exosomes; type: cell-based; settings: exosomes pretreated with biotin-labeled peptide, then removed with magnet
Protocol: (§2) In order to further identify the binding specificity of the ExoPep peptide to the A549 cell-derived exosome, the exosomes were labeled with a DID fluorescent dye, reacted with the biotin-labeled ExoPep peptide, and then conjugated with biotin by reacting the labeled avidin with magnetic particles. The complex of exosomes/biotin-peptide/avidin-magnetic particles prepared by the reaction was captured and removed using a magnet, and the remaining exosomes were treated to recipient cells (FIG. 5A).
On the other hand, internalization of exosomes into recipient cells was not reduced by pretreatment with the control peptide (sequence: NSSSVDK) (FIG. 5B). In addition, when a similar experiment was conducted on exosomes derived from normal HEK293 cells, the internalization of exosomes into recipient cells was not inhibited by the ExoPep peptide of an example embodiment of the present disclosure as well as the control peptide (FIG. 5C).

[7] = system: A549 tumor mice; experiment: in vivo distribution imaging of DiD-labeled exosomes with or without ExoPep; parameters: species or system mouse; settings: without exosomes
Protocol: DiD-labeled A549 tumor mouse blood-derived exosomes and A549 cell-derived exosomes were reacted with ExoPep peptide, and image monitoring was performed for in vivo distribution. Tumor xenograft mice were prepared by subcutaneously implanting A549 cell suspension (5×10^6 cells) along with PBS into the right flank of 5-week-old female BALB/c nude mice. When the tumor size reached a volume of approximately 100-200 mm^3, the mice were anesthetized. A549 tumor mice was intravenously administered with DiD-labeled A549 tumor mouse blood-derived exosomes (mEXO) and a product obtained by reacting the exosomes (mEXO) with peptides (mEXO+ExoPep, n=3) as well as DiD-labeled A549 cell-derived exosomes (cEXO) and a product obtained by reacting the exosomes (cEXO) with peptides (cEXO+ExoPep, n=3). The inventors of the present disclosure used FITC-labeled control peptide and ExoPep (n=3) as controls. In vivo fluorescence images were analyzed using an IVIS imaging system (Caliper Life Sciences, Massachusetts, USA) at various time points (2, 4, 8, and 24 hours, respectively) after administration of DiD-labeled exosomes. In vitro fluorescence images of excised tumors and organs were collected 24 hours after administration. All major organs (liver, kidney, spleen, heart, and lung) having tumor tissues were separated, washed with PBS, and subjected to in vitro fluorescence analysis (n=3).

[8] = system: A549 cell-derived exosomes; experiment: inhibition of exosome internalization by magnetic removal of peptide-bound exosomes; type: cell-based, human; settings: exosomes pretreated with biotin-labeled peptide, then removed with magnet
Protocol: as §2

[9] = system: red blood cells; experiment: in vitro hemolysis assay; type: cell-based; settings: various concentrations up to a final concentration of 200 μM, 37° C., 1 hour
Protocol: Next, an in vitro hemolysis assay was performed. In vitro hemolysis assay, as an indicator of hemolysis of red blood cells after exposure to a drug or an agent, was conducted by measuring the hemoglobin release in plasma. This is an accurate, sensitive method to predict the hemolytic activity of a drug. Fresh blood was centrifuged at 500×g for 10 minutes, and the pellet of red blood cells was washed 3 times and re-suspended in 10 mM PBS in pH 7.4. Equal volumes of red blood cells were reacted with various concentrations of ExoPep peptide by stirring at 37° C. for 1 hour. The samples were then centrifuged at 4° C. at 500×g for 10 minutes. RBC lysis was measured by analyzing absorbance at OD 540 nm depending on the concentration of different peptides. […] The hemolytic activity of the peptide was calculated in a percentage using the following equation.
H=100×(OP−OB)/(OT−OB) Equation:
In the equation above, OP, OB, and OT represent optical density of the peptide solution at an indicated concentration, optical density of a buffer, and optical density of Triton X 100, respectively.

[10] = system: MDA-MB231 cell-derived exosome / MDA-MB231 cells; experiment: confocal microscopy of peptide internalization with CD63-GFP exosomes; type: cell-based; settings: 10 uM TAMARA-conjugated peptide, 37° C., 1 hour
Protocol: In addition, an experiment was performed on exosomes derived from MDA-MB231 cells which were prepared to secrete exosomes showing green fluorescence by expressing CD63-GFP. GFP exosomes (green) and 10 uM TAMARA-conjugated peptide (red) were reacted with MDA-MB231 cells at 37° C. for 1 hour. Thereafter, after performing immobilization, DAPI nucleus staining, and mounting as described above, observation was followed using a confocal microscope (Zeiss, Oberkochen, Germany).

[11] = system: recipient cell A549; experiment: internalization of peptide with blood-derived exosomes into cells; type: cell-based, human; settings: DiD-labeled exosomes, FITC-labeled peptide
Protocol: In order to observe internalization of peptides into cells, exosomes were labeled with DiD, reacted with FITC-labeled peptides, and treated to A549 cells. Cells were immobilized with 4% paraformaldehyde for 5 minutes and stained with DAPI, followed by observation under a microscope.

[12] = system: A549 tumor mouse blood-derived exosome; experiment: flow cytometry binding of FITC-labeled ExoPep to blood-derived exosomes; settings: FITC-labeled peptide, CD63 antibody beads
Protocol: A549 cells were injected into BALB/c nude mice, blood was collected after the tumor grew, and exosomes were isolated using an exosome isolation kit. To measure the binding of the peptide to the exosomes by flow cytometry, the exosomes were labeled with CD63 antibody beads. As a control group, exosomes isolated from the blood of normal mice were used. The exosome-bead complex labeled with CD63 beads was blocked by a reaction with 1% BSA/PBS at room temperature for 30 minutes to reduce non-specific binding. After washing, the FITC-labeled ExoPep peptides were bound to the exosome-bead complex at 4° C. for 30 minutes. After washing again with PBS, the binding of the peptide to the exosome-bead complex was analyzed using a flow cytometer (ThermoFisher Scientific, USA) (FIG. 7A).

[13] = system: exosomes derived from A549 lung cancer cells; experiment: flow cytometry binding of FITC-labeled peptide to exosomes; parameters: species or system human; settings: 4° C.
Source text: (§3) 5 types of peptides (CTDTKIK, CRLSKKS, CRKVAKG, CRKRPAL, CAVRRKL) were synthesized based on the result of ELISA shown in FIG. 3. In order to investigate the binding of candidate peptides by FACS method, a peptide in which fluorescein isothiocyanate (FITC), a fluorescent substance, is conjugated to the carboxy terminus was synthesized by requesting Peptron Co. (Daegeon, Korea). Each peptide was synthesized by standard Fmoc method and purified by […]. In addition, FITC-labeled NSSSVDK peptide was used as a control.
(§4) In order to observe the peptide binding to the exosomes, biotin and exosomes were first combined in the same manner as described in FIG. 3, and then the exosomes were immobilized by binding with avidin beads. The exosome-bead complex was blocked for non-specific binding through treatment of 1% bovine serum albumin (BSA) dissolved in phosphate buffer for 30 minutes at room temperature. After washing, the FITC-labeled peptide was bound to the exosome-bead complex at 4° C. for 30 minutes. After the reaction, the binding of the peptide to the exosomes was analyzed using a flow cytometer.
On the other hand, in order to observe the peptide binding to the exosome-producing cells, 1×10^6 cells were first prepared. […] After the reaction, the binding of the peptide to the cells was analyzed using a flow cytometer.

[14] = system: exosomes derived from MDA-MB231 breast cancer cells; experiment: as above; settings: 4° C.
Source text: as §3, §4
(§5) On the other hand, in order to observe the peptide binding to the exosome-producing cells, 1×10^6 cells were first prepared. Each cell medium was treated with 1% BSA at 37° C. for 30 minutes. Thereafter, the FITC-labeled peptide was bound at 4° C. for 1 hour. After the reaction, the binding of the peptide to the cells was analyzed using a flow cytometer.

[15] = system: exosomes derived from LLC mouse lung cancer cells; experiment: as above; settings: 4° C.
Source text: as §3, §4, §5

[16] = system: exosomes derived from HT-29 colorectal cancer cells; experiment: as above; settings: 4° C.
Source text: as §3, §4, §5

[17] = system: exosomes derived from Panc-1 pancreatic cancer cells; experiment: as above; settings: 4° C.
Source text: as §3, §4, §5

[18] = system: exosomes derived from H460 lung cancer cells; experiment: as above; settings: 4° C.
Source text: as §3, §4, §5

[19] = system: exosomes derived from normal HEK293 cells; experiment: as above; settings: 4° C.
Source text: as §3, §4, §5

[20] = system: exosomes derived from HepG2 liver cancer cells; experiment: as above; settings: 4° C.
Source text: as §3, §4, §5

[21] = system: exosomes derived from normal MCF10A cells; experiment: as above; settings: 4° C.
Source text: as §3, §4, §5

[22] = system: A549 tumor nude mouse model; experiment: anticancer effect in the A549 tumor nude mouse model; type: in vivo
Protocol: To test anticancer effect using ExoPep-KLA in the A549 tumor nude mouse model, ExoPep-KLA peptides were pre-reacted with exosomes either alone or in vitro and then systemically administered intravenously for 3 weeks at the time points indicated in the protocol, and doxorubicin was administered once a week for 3 weeks (FIG. 14A).

[23] = system: A549 tumor nude mouse model; experiment: co-administration of doxorubicin and ExoPep-KLA in the A549 tumor nude mouse model; type: in vivo
Protocol: In the A549 tumor nude mouse model, ExoPep-KLA peptide was administered three times a week at the indicated time points, and doxorubicin was administered once a week for three weeks. The timing of single and co-administration was shown in the treatment protocol (FIG. 16A).

Compound: O=C(/C=C/c1ccc(/C=C/C(=O)Nc2ccc(C3=NCCN3)cc2)cc1)Nc1ccc(C2=NCCN2)cc1 [GW4869]
cytotoxicity (CCK-8) [1]: did not show toxicity even at high concentration | exosome markers such as CD63, Alix, and Tsg101 [2]: greatly reduced | internalization of exosomes and peptides bound therewith [3]: significantly reduced

Compound: NSSSVDK (NSSSVDK-{FITC′}) [control peptide, reference compound]
peptide observed in cells (internalization with exosomes) [4]: not observed | peptide observed in cells (internalization with exosomes) [5]: not observed in the cells | internalization of exosomes into recipient cells [6]: not inhibited | fluorescence signal of FITC-labeled peptide itself [7]: low signals | internalization of exosomes into recipient cells [8]: not reduced

binding to tumor mouse blood-derived exosome versus normal mouse blood-derived exosome [12]: bound better
Compound: CRKVAKG [ExoPep]
peptide observed in cells (internalization with exosomes) [4]: observed along with the exosomes in A549 cells | peptide observed in cells (internalization with exosomes) [5]: not observed in the cells | hemolytic activity [9]: only low levels of hemolytic activity | peptide observed in cells (internalization with exosomes) [10]: more of which were observed in the cells than the control peptide | internalization into recipient cell, tumor versus normal mouse blood-derived exosome [11]: internalized more | internalization of exosomes into recipient cells [6]: not inhibited | binding to exosomes compared to exosome-producing cell [13]: higher binding | fluorescence signal of FITC-labeled peptide itself [7]: low signals | binding to exosomes compared to exosome-producing cell [14]: higher binding | binding to exosomes compared to exosome-producing cell [15]: very low binding, or no higher binding | binding to exosomes compared to exosome-producing cell [16]: very low binding, or no higher binding | binding to exosomes compared to exosome-producing cell [17]: higher binding | binding to exosomes compared to exosome-producing cell [18]: higher binding | binding to exosomes compared to exosome-producing cell [19]: very low binding, or no higher binding | binding to exosomes compared to exosome-producing cell [20]: very low binding, or no higher binding | binding to exosomes compared to exosome-producing cell [21]: very low binding, or no higher binding | internalization of exosomes into recipient cells [8]: significantly inhibited

Compound: COc1cccc2c1C(=O)c1c(O)c3c(c(O)c1C2=O)C[C@@](O)(C(=O)CO)C[C@@H]3O[C@H]1C[C@H](N)[C@H](O)[C@H](C)O1 [doxorubicin]
tumor growth ([22]; intravenous, 3 weeks): significantly inhibited | weight of tumor ([22]; mouse, in vivo): reduced | size of tumor ([23]; 2.5 mg/kg, compared to phosphate buffer): slightly reduced | size of tumor ([23]; 5 mg/kg): more strongly inhibited | metastatic nodules and microscopic nodules ([23]; 5 mg/kg, compared to buffer): significantly reduced
